# Biological target: T1, bacteriophage T4 DNA polymerase (Enterobacteria phage T4, UniProt P04415)
# T1 construct: made in house
# T1 sequence (P04415 1-898): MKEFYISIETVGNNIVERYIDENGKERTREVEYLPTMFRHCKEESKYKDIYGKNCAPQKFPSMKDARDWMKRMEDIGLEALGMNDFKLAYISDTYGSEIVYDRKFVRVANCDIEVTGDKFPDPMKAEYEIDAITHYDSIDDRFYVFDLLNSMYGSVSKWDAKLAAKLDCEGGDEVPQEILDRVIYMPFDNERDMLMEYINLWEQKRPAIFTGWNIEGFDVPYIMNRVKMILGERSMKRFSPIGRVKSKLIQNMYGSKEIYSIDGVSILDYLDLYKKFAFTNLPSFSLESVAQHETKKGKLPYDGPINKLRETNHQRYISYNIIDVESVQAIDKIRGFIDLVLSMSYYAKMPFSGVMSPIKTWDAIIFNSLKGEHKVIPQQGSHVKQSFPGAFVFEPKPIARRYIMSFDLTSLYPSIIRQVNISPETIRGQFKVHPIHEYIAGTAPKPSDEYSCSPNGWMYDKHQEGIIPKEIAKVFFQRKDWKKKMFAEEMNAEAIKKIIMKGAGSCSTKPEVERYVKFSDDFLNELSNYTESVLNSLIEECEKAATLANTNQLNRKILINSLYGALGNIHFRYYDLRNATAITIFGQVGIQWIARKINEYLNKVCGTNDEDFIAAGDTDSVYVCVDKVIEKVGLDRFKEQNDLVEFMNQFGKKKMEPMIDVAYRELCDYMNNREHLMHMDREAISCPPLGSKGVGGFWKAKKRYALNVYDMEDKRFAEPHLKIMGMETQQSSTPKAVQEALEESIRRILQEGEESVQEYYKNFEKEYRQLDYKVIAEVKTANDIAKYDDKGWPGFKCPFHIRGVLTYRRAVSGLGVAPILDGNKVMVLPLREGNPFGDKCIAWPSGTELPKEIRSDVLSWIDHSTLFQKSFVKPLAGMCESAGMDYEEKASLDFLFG
# Experiment: Counter-screen against bacteriophage T4 DNA polymerase
# Format: biochemical
# Conditions: for % inhibition T4 10' 2.5 / % inhibition T4 10' 5 / % inhibition T4 10' 10 / % inhibition T4 10' 20 / % inhibition T4 10' 40 / % inhibition T4 10' 80: read at 10'; for % inhibition T4 10' 2.5 / % inhibition T4 70' 2.5 / % inhibition T4 130' 2.5 / % inhibition T4 40' 2.5 / % inhibition T4 90' 2.5 / % inhibition T4 180' 2.5: concentration 2.5; for % inhibition T4 10' 5 / % inhibition T4 70' 5 / % inhibition T4 130' 5 / % inhibition T4 40' 5 / % inhibition T4 90' 5 / % inhibition T4 180' 5: concentration 5; for % inhibition T4 10' 10 / % inhibition T4 70' 10 / % inhibition T4 130' 10 / % inhibition T4 40' 10 / % inhibition T4 90' 10 / % inhibition T4 180' 10: concentration 10; for % inhibition T4 10' 20 / % inhibition T4 70' 20 / % inhibition T4 130' 20 / % inhibition T4 40' 20 / % inhibition T4 90' 20 / % inhibition T4 180' 20: concentration 20; for % inhibition T4 10' 40 / % inhibition T4 70' 40 / % inhibition T4 130' 40 / % inhibition T4 40' 40 / % inhibition T4 90' 40 / % inhibition T4 180' 40: concentration 40; for % inhibition T4 10' 80 / % inhibition T4 70' 80 / % inhibition T4 130' 80 / % inhibition T4 40' 80 / % inhibition T4 90' 80 / % inhibition T4 180' 80: concentration 80; for % inhibition T4 70' 2.5 / % inhibition T4 70' 5 / % inhibition T4 70' 10 / % inhibition T4 70' 20 / % inhibition T4 70' 40 / % inhibition T4 70' 80: read at 70'; for % inhibition T4 130' 2.5 / % inhibition T4 130' 5 / % inhibition T4 130' 10 / % inhibition T4 130' 20 / % inhibition T4 130' 40 / % inhibition T4 130' 80: read at 130'; for % inhibition T4 40' 2.5 / % inhibition T4 40' 5 / % inhibition T4 40' 10 / % inhibition T4 40' 20 / % inhibition T4 40' 40 / % inhibition T4 40' 80: read at 40'; for % inhibition T4 90' 2.5 / % inhibition T4 90' 5 / % inhibition T4 90' 10 / % inhibition T4 90' 20 / % inhibition T4 90' 40 / % inhibition T4 90' 80: read at 90'; for % inhibition T4 180' 2.5 / % inhibition T4 180' 5 / % inhibition T4 180' 10 / % inhibition T4 180' 20 / % inhibition T4 180' 40 / % inhibition T4 180' 80: read at 180'
# Method in brief: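 IC50 values come from dose-response testing of each compound against T4 DNA polymerase. This B-family polymerase was purified in-house and used as the counter-screen.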
smiles,measurement,setting,value
CC(=O)Nc1cc(C(=O)c2cccs2)nn(-c2ccc(Cl)cc2)c1=O [KU0267905],% inhibition T4 10' 2.5,DRC-1,-2.1822%
same,% inhibition T4 10' 5,DRC-1,-1.511%
same,% inhibition T4 10' 10,DRC-1,8.968%
same,% inhibition T4 10' 20,DRC-1,21.6077%
same,% inhibition T4 10' 40,DRC-1,20.7445%
same,% inhibition T4 10' 80,DRC-1,21.8297%
same,% inhibition T4 70' 2.5,DRC-1,-0.6527%
same,% inhibition T4 70' 5,DRC-1,-1.806%
same,% inhibition T4 70' 10,DRC-1,6.193%
same,% inhibition T4 70' 20,DRC-1,12.7493%
same,% inhibition T4 70' 40,DRC-1,13.4043%
same,% inhibition T4 70' 80,DRC-1,12.69%
same,% inhibition T4 130' 2.5,DRC-1,-1.3658%
same,% inhibition T4 130' 5,DRC-1,-4.349%
same,% inhibition T4 130' 10,DRC-1,2.501%
same,% inhibition T4 130' 20,DRC-1,8.205%
same,% inhibition T4 130' 40,DRC-1,8.984%
same,% inhibition T4 130' 80,DRC-1,8.594%
same,% inhibition T4 10' 2.5,DRC-2,8%
same,% inhibition T4 10' 5,DRC-2,8.43%
same,% inhibition T4 10' 10,DRC-2,8%
same,% inhibition T4 10' 20,DRC-2,1.18%
same,% inhibition T4 10' 40,DRC-2,7%
same,% inhibition T4 10' 80,DRC-2,2.64%
same,% inhibition T4 40' 2.5,DRC-2,7%
same,% inhibition T4 40' 5,DRC-2,7.5%
same,% inhibition T4 40' 10,DRC-2,6.35%
same,% inhibition T4 40' 20,DRC-2,0.171%
same,% inhibition T4 40' 40,DRC-2,4%
same,% inhibition T4 40' 80,DRC-2,0.303%
same,% inhibition T4 90' 2.5,DRC-2,5%
same,% inhibition T4 90' 5,DRC-2,5%
same,% inhibition T4 90' 10,DRC-2,4%
same,% inhibition T4 90' 20,DRC-2,-2%
same,% inhibition T4 90' 40,DRC-2,2.26%
same,% inhibition T4 90' 80,DRC-2,-0.743%
same,% inhibition T4 180' 2.5,DRC-2,0.767%
same,% inhibition T4 180' 5,DRC-2,0.673%
same,% inhibition T4 180' 10,DRC-2,0.174%
same,% inhibition T4 180' 20,DRC-2,-8%
same,% inhibition T4 180' 40,DRC-2,-2.82%
same,% inhibition T4 180' 80,DRC-2,-3.56%
"COc1ccc(/C=C/c2cc(C(=O)O)c3ccccc3n2)cc1 [Molecule 5, COc1ccc(cc1)/C=C/c1nc2ccccc2c(c1)C(=O)O]",% inhibition T4 10' 2.5,DRC-1,1.081%
same,% inhibition T4 10' 5,DRC-1,5.185%
same,% inhibition T4 10' 10,DRC-1,0.5818%
same,% inhibition T4 10' 20,DRC-1,-3.901%
same,% inhibition T4 10' 40,DRC-1,-6.063%
same,% inhibition T4 10' 80,DRC-1,5.54%
same,% inhibition T4 70' 2.5,DRC-1,-11.7738%
same,% inhibition T4 70' 5,DRC-1,-0.8035%
same,% inhibition T4 70' 10,DRC-1,5.827%
same,% inhibition T4 70' 20,DRC-1,2.436%
same,% inhibition T4 70' 40,DRC-1,2.364%
same,% inhibition T4 70' 80,DRC-1,3.646%
same,% inhibition T4 130' 2.5,DRC-1,-10.2066%
same,% inhibition T4 130' 5,DRC-1,-1.2832%
same,% inhibition T4 130' 10,DRC-1,4.495%
same,% inhibition T4 130' 20,DRC-1,3.3008%
same,% inhibition T4 130' 40,DRC-1,3.939%
same,% inhibition T4 130' 80,DRC-1,6.199%
same,% inhibition T4 10' 2.5,DRC-2,4.49%
same,% inhibition T4 10' 5,DRC-2,7%
same,% inhibition T4 10' 10,DRC-2,18%
same,% inhibition T4 10' 20,DRC-2,21%
same,% inhibition T4 10' 40,DRC-2,24%
same,% inhibition T4 10' 80,DRC-2,17%
same,% inhibition T4 40' 2.5,DRC-2,4%
same,% inhibition T4 40' 5,DRC-2,8%
same,% inhibition T4 40' 10,DRC-2,18%
same,% inhibition T4 40' 20,DRC-2,27%
same,% inhibition T4 40' 40,DRC-2,31%
same,% inhibition T4 40' 80,DRC-2,26%
same,% inhibition T4 90' 2.5,DRC-2,3%
same,% inhibition T4 90' 5,DRC-2,6.33%
same,% inhibition T4 90' 10,DRC-2,16%
same,% inhibition T4 90' 20,DRC-2,25%
same,% inhibition T4 90' 40,DRC-2,29%
same,% inhibition T4 90' 80,DRC-2,27%
same,% inhibition T4 180' 2.5,DRC-2,-3.34%
same,% inhibition T4 180' 5,DRC-2,0.194%
same,% inhibition T4 180' 10,DRC-2,10%
same,% inhibition T4 180' 20,DRC-2,18%
same,% inhibition T4 180' 40,DRC-2,25%
same,% inhibition T4 180' 80,DRC-2,24%
"COc1ccc(C2CC(c3ccc(Cl)cc3Cl)Nc3nc(N)nn32)cc1OC (stereo not drawn) [Molecule 43, COc1cc(ccc1OC)C1CC(Nc2n1nc(n2)N)c1ccc(cc1Cl)Cl]",% inhibition T4 10' 2.5,DRC-1,8.55%
same,% inhibition T4 10' 5,DRC-1,0.398%
same,% inhibition T4 10' 10,DRC-1,3.64%
same,% inhibition T4 10' 20,DRC-1,1.67%
same,% inhibition T4 10' 40,DRC-1,9%
same,% inhibition T4 10' 80,DRC-1,12%
same,% inhibition T4 70' 2.5,DRC-1,8%
same,% inhibition T4 70' 5,DRC-1,0.633%
same,% inhibition T4 70' 10,DRC-1,1.77%
same,% inhibition T4 70' 20,DRC-1,0.0404%
same,% inhibition T4 70' 40,DRC-1,8%
same,% inhibition T4 70' 80,DRC-1,9%
same,% inhibition T4 130' 2.5,DRC-1,7%
same,% inhibition T4 130' 5,DRC-1,-0.436%
same,% inhibition T4 130' 10,DRC-1,0.362%
same,% inhibition T4 130' 20,DRC-1,-1.3%
same,% inhibition T4 130' 40,DRC-1,6%
same,% inhibition T4 130' 80,DRC-1,8.47%
same,% inhibition T4 10' 2.5,DRC-2,3.49%
same,% inhibition T4 10' 5,DRC-2,-2.24%
same,% inhibition T4 10' 10,DRC-2,-1.16%
same,% inhibition T4 10' 20,DRC-2,-2.26%
same,% inhibition T4 10' 40,DRC-2,0.721%
same,% inhibition T4 10' 80,DRC-2,0.788%
same,% inhibition T4 40' 2.5,DRC-2,2.64%
same,% inhibition T4 40' 5,DRC-2,-2.79%
same,% inhibition T4 40' 10,DRC-2,-1.88%
same,% inhibition T4 40' 20,DRC-2,-2.36%
same,% inhibition T4 40' 40,DRC-2,1%
same,% inhibition T4 40' 80,DRC-2,0.512%
same,% inhibition T4 90' 2.5,DRC-2,2%
same,% inhibition T4 90' 5,DRC-2,-3%
same,% inhibition T4 90' 10,DRC-2,-0.792%
same,% inhibition T4 90' 20,DRC-2,-3%
same,% inhibition T4 90' 40,DRC-2,-0.348%
same,% inhibition T4 90' 80,DRC-2,-1%
same,% inhibition T4 180' 2.5,DRC-2,-2.47%
same,% inhibition T4 180' 5,DRC-2,-8%
same,% inhibition T4 180' 10,DRC-2,-5%
same,% inhibition T4 180' 20,DRC-2,-7%
same,% inhibition T4 180' 40,DRC-2,-4%
same,% inhibition T4 180' 80,DRC-2,-2.58%

# Reference: paper PMC9090415, “Discovery of small molecule inhibitors of Plasmodium falciparum apicoplast DNA polymerase” (Journal of Enzyme Inhibition and Medicinal Chemistry, 2022)
